Test results taken from US20230339970A1, “CASEIN KINASE 1 DELTA MODULATORS” (priority 2020, published 2023).

Key:
human CSNK1D = biological target: T1, human CSNK1D (Homo sapiens, UniProt P48730); assay: Whole Cell nBRET CSNK1D Binding Assay; details: living CHO cells stably expressing human CSNK1D tagged with nanoluciferase; NanoBret tracer 130 nM; 2 hours at 37 C
T1 construct: expressed in transfected cells

[1] = biological target: T2, human recombinant GST cleaved CSNK1D (Homo sapiens, UniProt P48730); assay: Purified Enzyme Assay (ADP-Glo CSNK1D Kinase Assay); type: biochemical; details: 2 nM CSNK1D; peptide substrate 150 μM; ATP 20 μM; 45 minutes at room temperature
T2 construct: GST (cleaved yes); purchased University of Dundee clone DU 19064
T2 sequence (P48730 whole entry): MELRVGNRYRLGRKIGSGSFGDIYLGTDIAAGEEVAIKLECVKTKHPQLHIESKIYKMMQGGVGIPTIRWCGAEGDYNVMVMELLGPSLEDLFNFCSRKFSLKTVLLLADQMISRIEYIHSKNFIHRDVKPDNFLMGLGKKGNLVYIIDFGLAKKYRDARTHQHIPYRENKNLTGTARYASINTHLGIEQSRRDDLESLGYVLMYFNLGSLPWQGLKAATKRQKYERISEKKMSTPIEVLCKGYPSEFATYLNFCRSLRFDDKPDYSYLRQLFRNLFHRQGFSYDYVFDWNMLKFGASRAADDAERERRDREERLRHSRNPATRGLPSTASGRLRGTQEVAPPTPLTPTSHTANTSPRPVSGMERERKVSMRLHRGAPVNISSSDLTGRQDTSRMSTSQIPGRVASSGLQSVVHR
Protocol: In this assay, CSNK1D phosphorylates a substrate peptide PLSRTL-pS-VASLPGL in the presence of ATP. […] This assay monitors CSNK1D kinase activity by measuring the amount of ADP produced in the assay.
The substrate mix is added to each well of a low volume, 384-well, white opaque plate. Test compounds were diluted in HBSS and added in a dose-response to the plate.
The total volume of each reaction is 5 ul (2 μL of substrate mix, 1 μL of diluted compounds, and 2 μL of human recombinant CSNK1D). The plates are incubated for 45 minutes at room temperature.
ADP was quantified using the ADP-Glo™ Kinase Assay. ADP-Glo Reagent (5 μL) was added to each well. After a 1 hour incubation at room temperature, Kinase Detection Reagent (10 μL) was added to each well and incubated for 30 minutes. […] The raw data from the Envision is used to calculate percent activity.

T1 sequence (P48730 whole entry): as above

| SMILES | IC50 (human CSNK1D) [nM] | IC50 [1] [nM] |
| --- | --- | --- |
| [2H]C([2H])([2H])C1(C([2H])([2H])[2H])Cn2nc(-c3ccc(F)cn3)c(-c3c(F)c(C)nc4[nH]ncc34)c2CO1 [Example 406, 3-(5-Fluoro-6-methyl-1H-pyrazolo[3,4-b]pyridin-4-yl)-2-(5-fluoropyridin-2-yl)-6,6-bis(methyl-d3)-6,7-dihydro-4H-pyrazolo[5,1-c][1,4]oxazine] | 23 | 3 |
| Fc1ccc(-c2nn3c(c2-c2ccn4nccc4c2)CC[C@@H]2[C@H]3C2(F)F)cc1 (stereo in doubt) [Example 354, (5a*R,6a*S)-6,6-difluoro-2-(4-fluorophenyl)-3-(pyrazolo[1,5-a]pyridin-4-yl)-5,5a,6,6a-tetrahydro-4H-cyclopropa[e]pyrazolo[1,5-a]pyridine] | 71 | 18 |
| [2H]C([2H])([2H])[C@@]1(C(F)(F)F)Cn2nc(-c3ccc(F)cn3)c(-c3cc(C)nc4[nH]nc(C)c34)c2CO1 (single isomer, unassigned) [Example 429, (*S)-3-(3,6-Dimethyl-1H-pyrazolo[3,4-b]pyridin-4-yl)-2-(5-fluoropyridin-2-yl)-6-(methyl-d3)-6-(trifluoromethyl)-6,7-dihydro-4H-pyrazolo[5,1-c][1,4]oxazine] | 2230 | 133 |
| Cn1cc2nccc(-c3c(-c4ccc(F)cn4)nn4c3COC(C)(C)C4)c2n1 [Example 138, 2-(5-Fluoropyridin-2-yl)-6,6-dimethyl-3-(2-methyl-2H-pyrazolo[4,3-b]pyridin-7-yl)-6,7-dihydro-4H-pyrazolo[5,1-c][1,4]oxazine] | 999 | 106 |
| Cc1nc2[nH]ncc2c(-c2c(-c3ccc(F)cn3)nn3c2CC2(C3)CC2(F)F)c1F (single isomer, unassigned) [Example 263, (*R)-1′.1′-Difluoro-3-(5-fluoro-6-methyl-1H-pyrazolo[3,4-b]pyridin-4-yl)-2-(5-fluoro-2-pyridyl)spiro[4,6-dihydropyrrolo[1,2-b]pyrazole-5,2′-cyclopropane]] | 1460 | 54 |
| Cc1cc(-c2c(-c3ccc(F)cn3)nn3c2CC(C)(C)C3)c2cc[nH]c2n1 [Example 235, 4-[2-(5-Fluoro-2-pyridyl)-5,5-dimethyl-4,6-dihydropyrrolo[1,2-b]pyrazol-3-yl]-6-methyl-1H-pyrrolo[2,3-b]pyridine] | 8 | 1 |
| C[C@]1(C(F)(F)F)Cn2nc(-c3ccc(F)cc3)c(-c3ccn4nccc4c3)c2CO1 (single isomer, unassigned) [Example 412, (*R)-2-(4-Fluorophenyl)-6-methyl-3-(pyrazolo[1,5-a]pyridin-5-yl)-6-(trifluoromethyl)-6,7-dihydro-4H-pyrazolo[5,1-c][1,4]oxazine] | 694 | 149 |
| CC1(C)Cn2nc(-c3ccc(F)cn3)c(-c3ccnc4[nH]ccc34)c2CO1 [Example 147, 2-(5-Fluoropyridin-2-yl)-6,6-dimethyl-3-(1H-pyrrolo[2,3-b]pyridin-4-yl)-6,7-dihydro-4H-pyrazolo[5,1-c][1,4]oxazine] | 11 | 1 |
| CCC(=O)Nc1cc(-c2c(-c3ccc(F)cn3)nn3c2OCC(C)C3)ccn1 (centres unmarked) [Example 442, N-(4-(2-(5-Fluoropyridin-2-yl)-6-methyl-6,7-dihydro-5H-pyrazolo[5,1-b][1,3]oxazin-3-yl)pyridin-2-yl)propionamide] | 23 | 3 |
| Cc1cc(-c2c(-c3ncc(F)cc3F)nn3c2COC(C)(C)C3)c2cn[nH]c2n1 [Example 167, 2-(3,5-Difluoropyridin-2-yl)-6,6-dimethyl-3-(6-methyl-1H-pyrazolo[3,4-b]pyridin-4-yl)-6,7-dihydro-4H-pyrazolo[5,1-c][1,4]oxazine] | 91 | 3 |
| CC(=O)Nc1cc(-c2c(-c3ccc(F)cn3)nn3c2CC[C@H]2C[C@H]23)ccn1 (stereo in doubt) [Example 342, N-(4-((5a*S,6a*R)-2-(5-Fluoropyridin-2-yl)-5,5a,6,6a-tetrahydro-4H-cyclopropa[e]pyrazolo[1,5-a]pyridin-3-yl)pyridin-2-yl)acetamide] | 454 | 20 |
| CC1(C)Cn2nc(-c3ccc(F)cn3)c(-c3ccncc3)c2CO1 [Example 128, 2-(5-Fluoropyridin-2-yl)-6,6-dimethyl-3-(pyridin-4-yl)-6,7-dihydro-4H-pyrazolo[5,1-c][1,4]oxazine] | 244 | 13 |
| Cc1cn2nccc2cc1-c1c(-c2ccc(F)cn2)nn2c1OCC(C)(C)C2 [Example 451, 2-(5-Fluoro-2-pyridyl)-6,6-dimethyl-3-(6-methylpyrazolo[1,5-a]pyridin-5-yl)-5,7-dihydropyrazolo[5,1-b][1,3]oxazine] | 5760 | 132 |
| C[C@H]1CCc2c(-c3ccnc4[nH]ncc34)c(-c3ccc(F)cc3)nn21 [Example 15, 4-[(6S)-2-(4-Fluorophenyl)-6-methyl-5,6-dihydro-4H-pyrrolo[1,2-b]pyrazol-3-yl]-1H-pyrazolo[3,4-b]pyridine] | 12 | 1 |
| Cc1nc2[nH]ncc2c(-c2c(-c3ccc(F)cn3)nn3c2CC[C@]2(C3)CC2(F)F)c1F (single isomer, unassigned) [Example 332, (*R)-2,2-Difluoro-3′-(5-fluoro-6-methyl-1H-pyrazolo[3,4-b]pyridin-4-yl)-2′-(5-fluoropyridin-2-yl)-4′,5′-dihydro-7′H-spiro[cyclopropane-1,6′-pyrazolo[1,5-a]pyridine]] | 12 | 1 |
| CC1(CF)CCc2c(-c3ccnc(N)c3)c(-c3ccc(F)cn3)nn2C1 (single isomer, unassigned) [Example 287, (*R)-4-[6-(Fluoromethyl)-2-(5-fluoro-2-pyridyl)-6-methyl-5,7-dihydro-4H-pyrazolo[1,5-a]pyridin-3-yl]pyridin-2-amine] | 68 | 5 |

Other lines, results leading:

| IC50 (human CSNK1D) [nM] | IC50 [1] [nM] | SMILES |
| --- | --- | --- |
| 1070 | 36 | Fc1ccc(-c2nn3c(c2-c2ccnc4[nH]ncc24)CO[C@@H](C2CCC2)C3)nc1 (single isomer, unassigned) [Example 111, (*S)-6-Cyclobutyl-2-(5-fluoropyridin-2-yl)-3-(1H-pyrazolo[3,4-b]pyridin-4-yl)-6,7-dihydro-4H-pyrazolo[5,1-c][1,4]oxazine] |
| 257 | 9 | Fc1ccc(-c2nn3c(c2-c2ccnc4[nH]ncc24)OCCC3)nc1 [Example 186, 2-(5-Fluoropyridin-2-yl)-3-(1H-pyrazolo[3,4-b]pyridin-4-yl)-6,7-dihydro-5H-pyrazolo[5,1-b][1,3]oxazine] |
| 320 | 10 | Cc1cc(-c2c(-c3ncc(F)cc3F)nn3c2OCCC3)c2cn[nH]c2n1 [Example 189, 2-(3,5-Difluoro-2-pyridyl)-3-(6-methyl-1H-pyrazolo[3,4-b]pyridin-4-yl)-6,7-dihydro-5H-pyrazolo[5,1-b][1,3]oxazine] |
| 13 | 4 | CC1(C)Cc2c(-c3ccnc4[nH]nc(Cl)c34)c(-c3ccc(F)cn3)nn2C1 [Example 237, 3-Chloro-4-(2-(5-fluoropyridin-2-yl)-5,5-dimethyl-5,6-dihydro-4H-pyrrolo[1,2-b]pyrazol-3-yl)-1H-pyrazolo[3,4-b]pyridine] |
| 72 | 5 | Fc1ccc(-c2nn3c(c2-c2ccnc4[nH]ncc24)[C@H](Cl)C[C@]2(C3)CC2(F)F)nc1 (single isomer, unassigned) [Example 338, (1*S,4′*R)-4′-Chloro-2,2-difluoro-2′-(5-fluoropyridin-2-yl)-3′-(1H-pyrazolo[3,4-b]pyridin-4-yl)-4′,5′-dihydro-7′H-spiro[cyclopropane-1,6′-pyrazolo[1,5-a]pyridine]] |
| 33 | 6 | Fc1ccc(-c2nn3c(c2-c2ccnc4[nH]ncc24)OCC2(C3)CC2(F)F)cc1 (single isomer, unassigned) [Example 477, (*R)-2,2-Difluoro-2′-(4-fluorophenyl)-3′-1H-pyrazolo[3,4-b]pyridin-4-yl)-5′H,7′H-spiro[cyclopropane-1,6′-pyrazolo[5,1-b][1,3]oxazine]] |
| 110 | 4 | COCC1(F)CCc2c(-c3ccnc4[nH]ncc34)c(-c3ccc(F)cn3)nn2C1 (single isomer, unassigned) [Example 301, (*R)-4-[6-Fluoro-2-(5-fluoro-2-pyridyl)-6-(methoxymethyl)-5,7-dihydro-4H-pyrazolo[1,5-a]pyridin-3-yl]-1H-pyrazolo[3,4-b]pyridine] |
| 844 | 39 | Fc1ccc(-c2nn3c(c2-c2ccnc4[nH]ncc24)COC(C(F)(F)F)C3)nc1 (centres unmarked) [Example 102, 2-(5-Fluoropyridin-2-yl)-3-(1H-pyrazolo[3,4-b]pyridin-4-yl)-6-(trifluoromethyl)-6,7-dihydro-4H-pyrazolo[5,1-c][1,4]oxazine] |
| 821 | 26 | Cc1cc(-c2c(-c3ccc(F)cn3)nn3c2O[C@H](C)C[C@H]3C)c2cn[nH]c2n1 (single isomer, unassigned) [Example 208, (5*R,7*R)-2-(5-Fluoro-2-pyridyl)-5,7-dimethyl-3-(6-methyl-1H-pyrazolo[3,4-b]pyridin-4-yl)-6,7-dihydro-5H-pyrazolo[5,1-b][1,3]oxazine] |
